In PubChem BioAssay (NCI):
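Five compound concentrations were applied to cells in 96-well plates for 48 hours; endpoints were derived by simple linear interpolation of the resulting dose-response curve. GI50: concentration for 50% inhibition of growth. At the TGI there is no net growth.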

Tests used:
Test in all cases: NCI anticancer screen, dose series, 48 h
NCI/ADR-RES ovarian = test system: NCI/ADR-RES ovarian
M14 melanoma = test system: M14 melanoma
SW-620 colon = test system: SW-620 colon
KM12 colon = test system: KM12 colon
SF-539 CNS = test system: SF-539 CNS
SNB-75 CNS = test system: SNB-75 CNS
NCI-H226 lung = test system: NCI-H226 lung
SK-MEL-28 melanoma = test system: SK-MEL-28 melanoma
HCT-15 colon = test system: HCT-15 colon
SR leukemia = test system: SR leukemia
CAKI-1 renal = test system: CAKI-1 renal
CCRF-CEM leukemia = test system: CCRF-CEM leukemia
MOLT-4 leukemia = test system: MOLT-4 leukemia
UACC-257 melanoma = test system: UACC-257 melanoma
SF-295 CNS = test system: SF-295 CNS
MDA-MB-435 = test system: MDA-MB-435
ACHN renal = test system: ACHN renal
UO-31 renal = test system: UO-31 renal
MALME-3M melanoma = test system: MALME-3M melanoma
RPMI-8226 leukemia = test system: RPMI-8226 leukemia
EKVX NSCLC = test system: EKVX NSCLC
OVCAR-4 ovarian = test system: OVCAR-4 ovarian
786-0 renal = test system: 786-0 renal
SNB-19 CNS = test system: SNB-19 CNS
NCI-H460 lung = test system: NCI-H460 lung
HL-60(TB) leukemia = test system: HL-60(TB) leukemia
HOP-62 NSCLC = test system: HOP-62 NSCLC
PC-3 prostate = test system: PC-3 prostate
K-562 leukemia = test system: K-562 leukemia
HOP-92 NSCLC = test system: HOP-92 NSCLC
HS 578T breast = test system: HS 578T breast
DU-145 prostate = test system: DU-145 prostate
SK-MEL-5 melanoma = test system: SK-MEL-5 melanoma
HCC-2998 colon = test system: HCC-2998 colon
OVCAR-8 ovarian = test system: OVCAR-8 ovarian
LOX IMVI melanoma = test system: LOX IMVI melanoma
SF-268 CNS = test system: SF-268 CNS
SN12C renal = test system: SN12C renal
NCI-H23 lung = test system: NCI-H23 lung
UACC-62 melanoma = test system: UACC-62 melanoma
COLO 205 colon = test system: COLO 205 colon
SK-OV-3 ovarian = test system: SK-OV-3 ovarian
T-47D breast = test system: T-47D breast
MDA-MB-231 breast = test system: MDA-MB-231 breast
OVCAR-3 ovarian = test system: OVCAR-3 ovarian
HCT-116 colon = test system: HCT-116 colon
RXF 393 renal = test system: RXF 393 renal
OVCAR-5 ovarian = test system: OVCAR-5 ovarian
U251 CNS = test system: U251 CNS
BT-549 breast = test system: BT-549 breast
A549 NSCLC = test system: A549 NSCLC
TK-10 renal = test system: TK-10 renal
A498 renal = test system: A498 renal
SK-MEL-2 melanoma = test system: SK-MEL-2 melanoma
HT29 colon = test system: HT29 colon
IGROV1 ovarian = test system: IGROV1 ovarian
MCF7 breast = test system: MCF7 breast

Oc1ccccc1/C=N/Nc1nc(N/N=C/c2ccccc2O)nc(N2CCOCC2)n1
GI50 (NCI/ADR-RES ovarian): 0.685 µM
TGI (NCI/ADR-RES ovarian): 9.37 µM
GI50 (M14 melanoma): 3.22 µM
TGI (M14 melanoma): > 100 µM
GI50 (SW-620 colon): 1.78 µM
TGI (SW-620 colon): 23.4 µM
GI50 (KM12 colon): 33.2 µM
TGI (KM12 colon): > 100 µM
GI50 (SF-539 CNS): 7.29 µM
TGI (SF-539 CNS): > 100 µM
GI50 (SNB-75 CNS): 1.82 µM
TGI (SNB-75 CNS): 5.26 µM
GI50 (NCI-H226 lung): 3.92 µM
TGI (NCI-H226 lung): 20.4 µM
GI50 (SK-MEL-28 melanoma): 3.2 µM
TGI (SK-MEL-28 melanoma): 49.9 µM
GI50 (HCT-15 colon): 0.241 µM
TGI (HCT-15 colon): 16.2 µM
GI50 (SR leukemia): 0.322 µM
TGI (SR leukemia): > 100 µM
GI50 (CAKI-1 renal): 4.52 µM
TGI (CAKI-1 renal): 46.5 µM
GI50 (CCRF-CEM leukemia): 0.537 µM
TGI (CCRF-CEM leukemia): > 100 µM
GI50 (MOLT-4 leukemia): 1.55 µM
TGI (MOLT-4 leukemia): > 100 µM
GI50 (UACC-257 melanoma): 6.53 µM
TGI (UACC-257 melanoma): > 100 µM
GI50 (SF-295 CNS): 7.67 µM
TGI (SF-295 CNS): > 100 µM
GI50 (MDA-MB-435): 9.53 µM
TGI (MDA-MB-435): > 100 µM
GI50 (ACHN renal): 1.58 µM
TGI (ACHN renal): 44.9 µM
GI50 (UO-31 renal): 0.372 µM
TGI (UO-31 renal): 18.7 µM
GI50 (MALME-3M melanoma): 8.69 µM
TGI (MALME-3M melanoma): > 100 µM
GI50 (RPMI-8226 leukemia): 2.78 µM
TGI (RPMI-8226 leukemia): > 100 µM
GI50 (EKVX NSCLC): 3.28 µM
TGI (EKVX NSCLC): 32 µM
GI50 (OVCAR-4 ovarian): 2.48 µM
TGI (OVCAR-4 ovarian): 7.56 µM
GI50 (786-0 renal): 0.709 µM
TGI (786-0 renal): 15.3 µM
GI50 (SNB-19 CNS): 3.14 µM
TGI (SNB-19 CNS): 14.9 µM
GI50 (NCI-H460 lung): 2.3 µM
TGI (NCI-H460 lung): 17.4 µM
GI50 (HL-60(TB) leukemia): 0.193 µM
TGI (HL-60(TB) leukemia): > 100 µM
GI50 (HOP-62 NSCLC): 3.51 µM
TGI (HOP-62 NSCLC): 23 µM
GI50 (PC-3 prostate): 3.61 µM
TGI (PC-3 prostate): > 100 µM
GI50 (K-562 leukemia): 0.683 µM
TGI (K-562 leukemia): > 100 µM
GI50 (HOP-92 NSCLC): 1.65 µM
TGI (HOP-92 NSCLC): 6.01 µM
GI50 (HS 578T breast): 3.24 µM
TGI (HS 578T breast): 44.1 µM
GI50 (DU-145 prostate): 6.09 µM
TGI (DU-145 prostate): > 100 µM
GI50 (SK-MEL-5 melanoma): 5.86 µM
TGI (SK-MEL-5 melanoma): > 100 µM
GI50 (HCC-2998 colon): 7.65 µM
TGI (HCC-2998 colon): > 100 µM
GI50 (OVCAR-8 ovarian): 3.75 µM
TGI (OVCAR-8 ovarian): 34.5 µM
GI50 (LOX IMVI melanoma): 0.276 µM
TGI (LOX IMVI melanoma): 0.873 µM
GI50 (SF-268 CNS): 16.9 µM
TGI (SF-268 CNS): > 100 µM
GI50 (SN12C renal): 18.3 µM
TGI (SN12C renal): > 100 µM
GI50 (NCI-H23 lung): 4.31 µM
TGI (NCI-H23 lung): 20.1 µM
GI50 (UACC-62 melanoma): 24.5 µM
TGI (UACC-62 melanoma): > 100 µM
GI50 (COLO 205 colon): 5.53 µM
TGI (COLO 205 colon): > 100 µM
GI50 (SK-OV-3 ovarian): 3.7 µM
TGI (SK-OV-3 ovarian): 13.8 µM
GI50 (T-47D breast): 3.34 µM
TGI (T-47D breast): > 100 µM
GI50 (MDA-MB-231 breast): 2.42 µM
TGI (MDA-MB-231 breast): 30.9 µM
GI50 (OVCAR-3 ovarian): 3.42 µM
TGI (OVCAR-3 ovarian): > 100 µM
GI50 (HCT-116 colon): 0.823 µM
TGI (HCT-116 colon): > 100 µM
GI50 (RXF 393 renal): 0.272 µM
TGI (RXF 393 renal): 2.45 µM
GI50 (OVCAR-5 ovarian): 6.41 µM
TGI (OVCAR-5 ovarian): > 100 µM
GI50 (U251 CNS): 3.06 µM
TGI (U251 CNS): 22.3 µM
GI50 (BT-549 breast): 5.19 µM
TGI (BT-549 breast): > 100 µM
GI50 (A549 NSCLC): 2.88 µM
TGI (A549 NSCLC): 52.2 µM
GI50 (TK-10 renal): 44.9 µM
TGI (TK-10 renal): > 100 µM
GI50 (A498 renal): 1.09 µM
TGI (A498 renal): 8.58 µM
GI50 (SK-MEL-2 melanoma): 6.06 µM
TGI (SK-MEL-2 melanoma): > 100 µM
GI50 (HT29 colon): 5.89 µM
TGI (HT29 colon): > 100 µM
GI50 (IGROV1 ovarian): 0.966 µM
TGI (IGROV1 ovarian): > 100 µM
GI50 (MCF7 breast): 2.39 µM
TGI (MCF7 breast): > 100 µM
